This is an account of results in patent US4285956A, “Xanthene and thioxanthene derivatives, compositions thereof and treatment therewith” (priority 1978, dated 1981).

Where only a bound is given, the exact number is not on record here.

Test [1] in a line: Neuroleptic effect: duration and strength (remarks of Table 2). Format: in vivo. To be noted: in words; for Duration (remarks, words): duration of neuroleptic effect; for Strength of effect (remarks, words): strength of neuroleptic effect. From the text:
The pharmacological testing of the novel xanthones and thioxanthenes of Formula I consisted of standard and reliable tests. […]

Test [2] in a line: Catalepsy wire mesh, rat, max. Type of test: in vivo, rats. The following applies: Rattus norvegicus, sc; rats, s.c., strongest effect within first 6 hours; read-out: Catalepsy wire mesh, rat, max. ED50. Here is the method:
Catalepsy wire mesh, rat, max. (ED50 mg/kg s.c.)
A vertical wire netting (50 cm×49 cm). The meshes (openings) of the netting are square (1 cm×1 cm). The wire diameter is 2 mm. Stop watch. Rats, male, 180-200 g.
The animals are labeled and used in groups of five. The test substance is injected subcutaneously (s.c.) (5 ml/kg) at 4 dose levels selected from the fixed dose scale.
The animals are placed in the middle of the vertical wire netting 60, 120, 180, 240, 300 and 360 minutes after injection of the test compound. The animals are considered cataleptic when they remain immobile during a period of 15 seconds. This cataleptic reaction is designated +. If the rats are "atonic" and passively slide down the wire mesh they are considered not cataleptic. If the animals climb up and down the wire mesh they are nor cataleptic. In both situations the designation - is used.

Test [3] can be described thus: Methylphenidate antagonism (mice biting corrugated paper). Type of test: in vivo. The following applies: mice, i.p.; for ED50: Mus musculus, ip. How it is done: Methylphenidate antagonism (ED50 mg/kg i.p.)
Perspex observation cages without bottom and lid, consisting of 5 sections each measuring 12×25×30 cm. White corrugated paper. Mice, male, 18-25 g.
The test substance is given i.p. in the doses 0, 1/8, 1/32 and 1/128 of the determined "i.p. LD50". 3×2 mice are used for each dose level. Two or 24 hours after injection of test substance, methylphenidate, 60 mg/kg, is injected s.c. After administration of methylphenidate the mice are placed in the observation cages, 2 in each cage, where they remain for exactly 1 hour. The cages are placed on corrugated paper, the corrugations facing upwards. It is examined whether the mice have been biting the corrugated paper or not. […] If one or more of the control pairs have not been biting, the test has to be repeated on a new set of mice.
The result is stated in fractions: 0/3, 1/3, 2/3 and 3/3 where 0, 1, 2 and 3 are the number of pairs which have not been biting on receipt of the dose in question.
The results are calculated as the dose (ED50), which causes antagonism in 50% of the test animals.

Test [4] is described as follows: Amphetamine antagonism (stereotypy in rats). To be noted: Rattus norvegicus. Format: in vivo.
Setting [5] is: methylphenidate 60 mg/kg s.c. 2 h after test substance, read-out: Methylphenidate antagonism ED50, 2 h.
Setting [6] is: methylphenidate 60 mg/kg s.c. 24 h after test substance, read-out: Methylphenidate antagonism ED50, 24 h.
The mark [7] stands for this setting: ip, 24 h, read-out: Amphetamine antagonism ED50.

Consider `CC(=O)N[C@H]1CC[C@H](CN2CCC(=C3c4ccc(F)cc4Sc4ccc(C(F)(F)F)cc43)CC2)CC1` [Lu 16-043], for which the “Duration (remarks, words)” value in test [1] is given as “long acting”. In addition, the “Strength of effect (remarks, words)” value in test [1] is reported as “relatively strong”. The ED50 in test [2] was greater than 20 mg/kg; in test [3] (setting [5]), greater than 10 mg/kg; in test [3] (setting [6]) it was 0.42 mg/kg.
With `O[C@@H]1CC[C@H](CN2CCC(=C3c4ccccc4Sc4ccc(Cl)cc43)CC2)C[C@H]1O` (relative stereo) [Lu 15-041, 1-(3-trans-4-cis-dihydroxycyclohexylmethyl)-4-(2-chloro-9-thioxanthenylidene)piperidine], the “Duration (remarks, words)” value in test [1] is reported as “moderately long acting”. Also, in test [1], the “Strength of effect (remarks, words)” value is “strong”. Besides, the ED50 in test [4] (setting [7]) was less than 0.31 mg/kg; in test [3] (setting [5]) it was 0.62 mg/kg; in test [3] (setting [6]), 3.6 mg/kg.
For the compound `O=C1CCC(CN2CCC(=C3c4ccc(F)cc4Sc4ccc(C(F)(F)F)cc43)CC2)CC1` [Lu 16-088], the “Duration (remarks, words)” value in test [1] was “long acting”. The “Strength of effect (remarks, words)” value in test [1] is “strong”. For the same compound, the ED50 worked out at 0.3 mg/kg in test [4] (po, read-out: Amphetamine antagonism ED50, p.o.); 0.81 mg/kg in test [2]; 0.77 mg/kg in test [3] (setting [5]); 0.06 mg/kg in test [3] (setting [6]).
Take `CSc1ccc2c(c1)C(=C1CCN(C[C@H]3CC[C@H](O)CC3)CC1)c1ccc(F)cc1S2` [Lu 14-116, 1-(trans-4-hydroxycyclohexylmethyl)-4-(2-methylthio-6-fluoro-9-thioxanthenylidene)-piperidine]: the “Duration (remarks, words)” value in test [1] is recorded as “long acting”. Moreover, the “Strength of effect (remarks, words)” value in test [1] was “strong”. The ED50 was determined as 0.28 mg/kg in test [4] (setting [7]), 0.58 mg/kg in test [2], 0.44 mg/kg in test [3] (setting [5]) and 0.38 mg/kg in test [3] (setting [6]).
For the compound `O[C@H]1CCCC[C@H]1CN1CCC(=C2c3ccc(F)cc3Sc3ccc(C(F)(F)F)cc32)CC1` (relative stereo) [Lu 15-138, 1-(cis-2-hydroxycyclohexylmethyl)-4-(2-trifluoromethyl-6-fluoro-9-thioxanthenylidene)-piperidine], in test [1], the “Duration (remarks, words)” value is “long acting”. In addition, the “Strength of effect (remarks, words)” value in test [1] is “strong”. For the same compound, the ED50 amounted to 1.7 mg/kg in test [4] (setting [7]), 1.3 mg/kg in test [3] (setting [5]) and 0.15 mg/kg in test [3] (setting [6]).
With `O[C@H]1CC[C@H](CN2CCC(=C3c4ccc(F)cc4Sc4cc(F)ccc43)CC2)CC1` [Lu 15-062, 1-(trans-4-hydroxycyclohexylmethyl)-4-(3,6-di-fluoro-9-thioxanthenylidene)-piperidine], in test [1], the “Duration (remarks, words)” value is “short acting”. The “Strength of effect (remarks, words)” value in test [1] is on record as “moderately strong”. The results for the ED50 in test [4] (setting [7]), in test [3] (setting [5]) and in test [3] (setting [6]) were 0.85 mg/kg, 0.77 mg/kg and greater than 10 mg/kg, respectively.
Consider `CN(C)S(=O)(=O)c1ccc2c(c1)C(=C1CCN(C[C@H]3CC[C@H](O)CC3)CC1)c1ccc(F)cc1S2` [Lu 16-107, 1-(Trans-4-hydroxycyclohexylmethyl)-4-(2-dimethylsulfamoyl-6-fluoro-9-thioxanthenylidene)piperidine], for which the “Duration (remarks, words)” value in test [1] is reported as “long acting”. Moreover, in test [1], the “Strength of effect (remarks, words)” value was “moderately strong”. In addition, the ED50 came out at 0.28 mg/kg in test [2], 1.9 mg/kg in test [3] (setting [5]) and 0.76 mg/kg in test [3] (setting [6]).
Take `O[C@H]1CC[C@H](CN2CCC(=C3c4ccc(F)cc4Sc4ccc(Cl)cc43)CC2)CC1` [Lu 14-114, 1-(trans-4-hydroxycyclohexylmethyl)-4-(2-chloro-6-fluoro-9-thioxanthenylidene)-piperidine]: the “Duration (remarks, words)” value in test [1] was “short acting”. In addition, the “Strength of effect (remarks, words)” value in test [1] is given as “strong”. The ED50 in test [4] (setting [7]) came out at 0.35 mg/kg; in test [3] (setting [5]), 0.1 mg/kg; in test [3] (setting [6]), 6.6 mg/kg.
For the compound `CS(=O)(=O)c1ccc2c(c1)C(=C1CCN(C[C@H]3CC[C@H](O)CC3)CC1)c1ccccc1S2` [Lu 16-066, 1-(Trans-4-hydroxycyclohexylmethyl)-4-(2-methylsulfonyl-9-thioxanthenylidene)piperidine], in test [1], the “Duration (remarks, words)” value is listed as “short acting”. Further, the “Strength of effect (remarks, words)” value in test [1] is reported as “moderately strong”. Moreover, the values for the ED50 in test [2], in test [3] (setting [5]) and in test [3] (setting [6]) were 0.25 mg/kg, 0.73 mg/kg and greater than 10 mg/kg, respectively.
Regarding `Cc1ccc2c(c1)C(=C1CCN(C[C@H]3CC[C@H](O)CC3)CC1)c1ccc(F)cc1S2` [Lu 14-082, 1-(trans-4-hydroxycyclohexylmethyl)-4-(2-methyl-6-fluoro-9-thioxanthenylidene)-piperidine], in test [1], the “Duration (remarks, words)” value is “short acting” and the “Strength of effect (remarks, words)” value is “moderately strong”. In test [3] (setting [5]), the ED50 is 0.79 mg/kg. Moreover, the ED50 in test [3] (setting [6]) was greater than 10 mg/kg.
With `N[C@H]1CC[C@H](CN2CCC(=C3c4ccccc4Sc4ccc(Cl)cc43)CC2)CC1` [Lu 16-081], in test [1], the “Duration (remarks, words)” value was “short acting” and the “Strength of effect (remarks, words)” value is given as “moderately strong”. The median effective dose (ED50) in test [3] (setting [5]) was determined as 0.5 mg/kg. The ED50 in test [3] (setting [6]) was roughly 10 mg/kg.
For `O[C@H]1CC[C@@H](CN2CCC(=C3c4ccccc4Sc4ccc(Cl)cc43)CC2)CC1` [Lu 15-014, 1-(Cis-4-hydroxycyclohexylmethyl)-4-(2-chloro-9-thioxanthenylidene)-piperidine], in test [1], the “Duration (remarks, words)” value is listed as “short acting”. The “Strength of effect (remarks, words)” value in test [1] was “strong”. For the same compound, the ED50 was 2.5 mg/kg in test [2], 0.2 mg/kg in test [3] (setting [5]) and greater than 10 mg/kg in test [3] (setting [6]).
Turning to “1-(2-Oxazolidinon-3-yl)ethyl)-4-(2-fluoro-6-methyl-9-thioxanthenylidene)-piperidine [Lu-15-062]”, in test [1], the “Duration (remarks, words)” value was “short acting” and the “Strength of effect (remarks, words)” value is “moderately strong”. For the same compound, in test [3] (methylphenidate 60 mg/kg s.c. 2 h after test substance), the “Methylphenidate antagonism ED50, 2 h” value is 0.51 mg/kg. Further, in test [3] (methylphenidate 60 mg/kg s.c. 24 h after test substance), the “Methylphenidate antagonism ED50, 24 h” value is recorded as greater than 40 mg/kg.
`CC1(O)CCC(CN2CCC(=C3c4ccc(F)cc4Sc4ccc(C(F)(F)F)cc43)CC2)CC1` (stereo not shown) [Lu 15-048, 1-(4-hydroxy-4-methylcyclohexylmethyl)-4-(2-trifluoromethyl-6-fluoro-9-thioxanthenylidene)-piperidine]: in test [1], the “Duration (remarks, words)” value was “long acting”. In test [1], the “Strength of effect (remarks, words)” value is given as “strong”. The values for the median effective dose (ED50) in test [4] (setting [7]), in test [3] (setting [5]) and in test [3] (setting [6]) were less than 0.31 mg/kg, 1.3 mg/kg and 0.13 mg/kg, respectively.
As to `Fc1ccc2c(c1)Sc1ccc(C(F)(F)F)cc1C2=C1CCN(CC2CCOCC2)CC1` [Lu 15-031, 1-(4-tetrahydropyranylmethyl)-4-(2-trifluoromethyl-6-fluoro-9-thioxanthenylidene)piperidine], in test [1], the “Duration (remarks, words)” value was “long acting”. Besides, the “Strength of effect (remarks, words)” value in test [1] was “moderately strong”. Besides, the median effective dose (ED50) was determined as 1.3 mg/kg in test [4] (setting [7]), 0.52 mg/kg in test [3] (setting [5]) and 0.55 mg/kg in test [3] (setting [6]).
On to `OC1COC(CN2CCC(=C3c4ccccc4Sc4ccc(Cl)cc43)CC2)OC1` (stereo not shown) [Lu 14-140, 1-(5-hydroxy-1,3-dioxan-2-yl)methyl-4-(2-chloro-9-thioxanthenylidene)-piperidine], for which the “Duration (remarks, words)” value in test [1] is on record as “short acting”. In addition, the “Strength of effect (remarks, words)” value in test [1] is “strong”. In addition, the 50% effective dose (ED50) in test [3] (setting [5]) is 0.77 mg/kg; in test [3] (setting [6]), greater than 40 mg/kg.
On the same counts, the results for `Cc1ccc2c(c1)Sc1ccc(F)cc1C2=C1CCN(C[C@H]2CC[C@H](O)CC2)CC1` [Lu 14-090, 1-(trans-4-hydroxycyclohexylmethyl)-4-(2-fluoro-6-methyl-9-thioxanthenylidene)-piperidine] are “short acting”, “moderately strong”, 1.25 mg/kg and 32 mg/kg.
As to `O[C@@H]1CC[C@H](CN2CCC(=C3c4ccc(F)cc4Sc4ccc(Cl)cc43)CC2)C[C@H]1O` (relative stereo) [Lu 15-070, 1-(3-trans-4-cis-dihydroxycyclohexylmethyl)-4-(2-chloro-6-fluoro-9-thioxanthenylidene)-piperidine], the “Duration (remarks, words)” value in test [1] was “moderately long acting”. The values for the ED50 in test [3] (setting [5]) and in test [3] (setting [6]) were 0.51 mg/kg and 0.5 mg/kg, respectively.

Usually ED50 stands for the dose that gives a 50% effect, or the effect in half of the subjects.
